Experiments:
[1] = tested on: Primary gingival keratinocytes
[2] = tested on: Primary epidermal keratinocytes (HEKa)

In the case of O=c1[nH]cc(F)c(=O)[nH]1 [5-FLUOROURACILE, 5-fluorouracile], the “CC50 Value Primary gingival keratinocytes” value [1] is reported as “Not calculable” and the “CC50 Value Primary epidermal keratinocytes (HEKa)” value [2] is reported as “Not calculable”.

Nc1ncn([C@@H]2O[C@H](CO)[C@@H](O)[C@H]2O)c(=O)n1 [AZACYTIDINE, azacytidine] showed a CC50 [1] of 1.8 µM and a CC50 [2] of 51.2 µM.

For CCCCCOC(=O)Nc1nc(=O)n([C@@H]2O[C@H](C)[C@@H](O)[C@H]2O)cc1F [CAPECITABIN, capecitabin], the CC50 [1] was 103 µM and the “CC50 Value Primary epidermal keratinocytes (HEKa)” value [2] was “Not calculable”.

With O=C1[O][Pt]2([NH][C@@H]3CCCC[C@H]3[NH]2)[O]C1=O [OXALIPLATIN, oxaliplatin] the CC50 [1] was 46 µM and the CC50 [2] was 32.3 µM.

— patent publication US20240002952A1, “METHOD FOR IN VITRO DIAGNOSIS OF MUCOSITIS IN CANCER PATIENTS UNDERGOING ANTITUMOR THERAPY” (ISTITUTI FISIOTERAPICI OSPITALIERI, priority 2020, published 2024)
